Results published in patent US10265286B2, “Sequelae of cardiopulmonary bypass-induced pulmonary injury” (Vanderbilt University, priority 2016, dated 2019).

Experiment: Phase IB study: safety (adverse events, bleeding, laboratory, hemodynamics)
Type: in vivo, human
Description: Primary safety assessments included hemodynamic monitoring to identify clinically significant hypotension using age-specific limits. Adverse event information was collected, and postoperative bleeding was recorded.
Further safety, laboratory, and clinical assessments were performed from baseline to discharge, secondary clinical variables included: postoperative mechanical ventilation, duration of total respiratory support, hemodynamic improvement, postoperative PVT by echocardiogram, serum creatinine and liver enzymes, inotrope score, duration of chest tube usage, length of intensive care unit stay, length of hospitalization and survival.

NC(=O)NCCCC(N)C(=O)O (stereo not shown) [Citrulline, 2-amino-5-(carbamoylamino)pentanoic acid]
AE hypotension (citrulline group): 27%
AE tachypnea (citrulline group): 27%
AE hypertension (citrulline group, placebo 36%): 27%
AE pleural effusion (citrulline group, placebo 45%): 36%
patients with at least one treatment-emergent AE (citrulline group, placebo 73%): 100%
Heart rate (citrulline vs placebo): consistently higher in the placebo group than the citrulline group
AE leading to death, SAE, AE leading to discontinuation (in vivo): No AE leading to death, no SAE, and no AE leading to discontinuation
impact on oxygen saturation or systemic arterial blood pressure (in vivo): no noteworthy impact
post-operative bleeding (length and volume of chest tube drainage) versus placebo (in vivo): no difference in post-operative bleeding
BUN (stable in the placebo group, p=0.0111): increased from baseline through to Day 2
